Read-outs that look alike come from different tables or passages of the source.
Assays:
[1] = target: human TLR8 (Homo sapiens (Human), UniProt Q9NR97); test: TLR8 inhibition reporter assay (HEK-Blue SEAP); settings: read-out: TLR8 IC50;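 further: SEAP driven by IFN-β minimal promoter carrying NF-κB and AP-1 sites, compounds dosed 0.05 nM to 50 µM for 22 h, inhibition scaled between agonist-plus-DMSO and reference-inhibitor wells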
[2] = target: human TLR9 (Homo sapiens (Human), UniProt Q9NR96); test: TLR9 inhibition reporter assay (HEK-Blue SEAP); settings: read-out: TLR9 IC50;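 further: SEAP driven by an IFN-β minimal promoter with NF-κB and AP-1 sites, read after 22 h, compounds dosed 0.05 nM–50 µM, inhibition scaled between agonist plus DMSO and reference-inhibitor wells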
[3] = target: human TLR7 (Homo sapiens (Human), UniProt Q9NYK1); test: TLR7 inhibition reporter assay (HEK-Blue SEAP); type: cell-based
[4] = HEK-Blue cells overexpressing human TLR8, SEAP reporter, R848 15.9 μM
[5] = HEK-Blue cells overexpressing human TLR9, SEAP reporter, ODN2006 5 nM
[6] = HEK-Blue cells overexpressing human TLR7, SEAP reporter, gardiquimod 7.5 μM
[7] = HEK-Blue cells overexpressing human TLR8, R848 15.9 μM stimulation, SEAP reporter
[8] = HEK-Blue cells overexpressing human TLR9, ODN2006 5 nM stimulation, SEAP reporter
[9] = HEK-Blue cells overexpressing human TLR7, gardiquimod 7.5 μM stimulation, SEAP reporter
[10] = HEK-Blue human TLR8 cells, R848 15.9 μM
[11] = HEK-Blue human TLR9 cells, ODN2006 5 nM
[12] = HEK-Blue human TLR7 cells, gardiquimod 7.5 μM

human TLR9, sequence (Q9NR96 26-1032): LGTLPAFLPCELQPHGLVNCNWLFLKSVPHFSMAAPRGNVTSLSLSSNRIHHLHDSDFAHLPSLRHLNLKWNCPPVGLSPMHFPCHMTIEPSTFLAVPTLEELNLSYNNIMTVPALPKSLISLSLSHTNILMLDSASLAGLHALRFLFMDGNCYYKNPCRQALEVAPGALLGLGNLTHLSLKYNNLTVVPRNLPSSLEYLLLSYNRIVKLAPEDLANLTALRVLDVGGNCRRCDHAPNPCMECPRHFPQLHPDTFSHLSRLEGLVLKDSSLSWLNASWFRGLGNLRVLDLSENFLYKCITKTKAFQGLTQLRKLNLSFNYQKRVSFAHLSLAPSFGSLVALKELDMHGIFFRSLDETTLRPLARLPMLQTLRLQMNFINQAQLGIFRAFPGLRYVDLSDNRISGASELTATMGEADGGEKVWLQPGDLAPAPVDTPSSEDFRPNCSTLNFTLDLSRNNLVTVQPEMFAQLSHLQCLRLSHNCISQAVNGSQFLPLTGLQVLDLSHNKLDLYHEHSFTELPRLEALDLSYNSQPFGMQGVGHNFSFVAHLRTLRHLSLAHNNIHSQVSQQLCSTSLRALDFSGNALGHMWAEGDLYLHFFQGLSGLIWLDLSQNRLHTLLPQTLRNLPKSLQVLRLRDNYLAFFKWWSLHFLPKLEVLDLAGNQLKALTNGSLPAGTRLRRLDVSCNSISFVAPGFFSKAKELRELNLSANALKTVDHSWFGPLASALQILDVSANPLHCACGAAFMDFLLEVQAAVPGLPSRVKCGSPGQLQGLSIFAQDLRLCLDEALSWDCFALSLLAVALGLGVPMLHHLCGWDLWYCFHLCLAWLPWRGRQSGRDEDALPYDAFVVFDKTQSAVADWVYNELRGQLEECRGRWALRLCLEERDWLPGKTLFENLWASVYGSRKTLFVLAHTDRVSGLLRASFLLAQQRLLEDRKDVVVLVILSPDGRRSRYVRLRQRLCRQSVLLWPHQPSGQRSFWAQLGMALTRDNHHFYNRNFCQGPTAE
human TLR8, sequence (Q9NR97 27-1041): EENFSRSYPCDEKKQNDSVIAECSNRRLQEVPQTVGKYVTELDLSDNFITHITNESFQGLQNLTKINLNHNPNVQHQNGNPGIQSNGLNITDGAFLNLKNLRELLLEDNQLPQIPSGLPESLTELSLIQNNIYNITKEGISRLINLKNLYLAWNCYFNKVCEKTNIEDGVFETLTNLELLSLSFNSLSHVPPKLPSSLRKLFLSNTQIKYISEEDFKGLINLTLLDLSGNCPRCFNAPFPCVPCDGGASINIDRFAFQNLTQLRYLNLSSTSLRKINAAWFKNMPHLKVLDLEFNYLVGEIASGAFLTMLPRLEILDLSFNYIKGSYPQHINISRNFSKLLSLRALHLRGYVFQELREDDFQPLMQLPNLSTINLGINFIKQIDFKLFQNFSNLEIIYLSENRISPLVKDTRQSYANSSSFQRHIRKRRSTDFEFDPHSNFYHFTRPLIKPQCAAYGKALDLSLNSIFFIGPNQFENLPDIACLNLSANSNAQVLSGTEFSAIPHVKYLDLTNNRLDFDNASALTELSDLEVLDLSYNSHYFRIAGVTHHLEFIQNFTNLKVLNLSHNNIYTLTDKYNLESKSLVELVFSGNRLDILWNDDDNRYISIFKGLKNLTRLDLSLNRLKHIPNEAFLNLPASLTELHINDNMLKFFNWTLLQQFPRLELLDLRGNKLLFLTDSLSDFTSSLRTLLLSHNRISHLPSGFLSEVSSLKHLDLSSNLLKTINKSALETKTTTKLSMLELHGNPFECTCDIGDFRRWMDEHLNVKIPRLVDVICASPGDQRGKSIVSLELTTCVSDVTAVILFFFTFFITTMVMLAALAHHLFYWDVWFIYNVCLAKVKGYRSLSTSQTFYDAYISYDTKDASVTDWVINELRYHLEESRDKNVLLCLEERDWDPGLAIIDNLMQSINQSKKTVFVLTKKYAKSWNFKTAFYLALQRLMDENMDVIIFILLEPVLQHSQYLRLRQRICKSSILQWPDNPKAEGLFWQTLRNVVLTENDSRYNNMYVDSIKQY
human TLR7, sequence (Q9NYK1 27-1049): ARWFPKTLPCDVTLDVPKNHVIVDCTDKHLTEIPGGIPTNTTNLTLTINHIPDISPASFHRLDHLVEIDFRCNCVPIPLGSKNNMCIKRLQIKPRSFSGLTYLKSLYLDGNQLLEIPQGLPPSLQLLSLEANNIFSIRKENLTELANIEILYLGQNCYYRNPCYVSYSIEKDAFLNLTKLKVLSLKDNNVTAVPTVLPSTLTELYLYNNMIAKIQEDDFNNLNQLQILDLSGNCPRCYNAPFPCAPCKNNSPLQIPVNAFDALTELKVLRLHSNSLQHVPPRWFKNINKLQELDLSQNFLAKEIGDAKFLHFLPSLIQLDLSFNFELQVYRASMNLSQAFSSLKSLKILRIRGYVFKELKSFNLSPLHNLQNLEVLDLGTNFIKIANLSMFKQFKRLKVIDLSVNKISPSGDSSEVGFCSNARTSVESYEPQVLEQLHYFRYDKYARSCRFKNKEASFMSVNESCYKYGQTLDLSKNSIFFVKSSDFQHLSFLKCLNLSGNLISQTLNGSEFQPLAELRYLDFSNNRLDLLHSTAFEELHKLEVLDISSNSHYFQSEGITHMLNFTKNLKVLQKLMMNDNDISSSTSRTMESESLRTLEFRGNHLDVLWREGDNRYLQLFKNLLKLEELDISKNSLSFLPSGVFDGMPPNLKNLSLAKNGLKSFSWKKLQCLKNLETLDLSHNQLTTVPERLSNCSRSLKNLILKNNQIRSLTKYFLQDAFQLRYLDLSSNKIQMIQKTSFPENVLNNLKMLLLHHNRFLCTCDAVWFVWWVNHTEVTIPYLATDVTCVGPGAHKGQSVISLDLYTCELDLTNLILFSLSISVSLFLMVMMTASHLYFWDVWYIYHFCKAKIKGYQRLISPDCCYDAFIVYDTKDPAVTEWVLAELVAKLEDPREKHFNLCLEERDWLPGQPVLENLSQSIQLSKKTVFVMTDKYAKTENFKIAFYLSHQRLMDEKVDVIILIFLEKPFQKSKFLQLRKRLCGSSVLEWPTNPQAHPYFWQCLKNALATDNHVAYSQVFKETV

Cc1cc2[nH]c(-c3cc(C)c4ncnn4c3)c(C(C)C)c2nc1C1CCNCC1 [Example 525] was tested, and the IC50 [1, 4] was 48 nM, the IC50 [2, 5] was 771 nM and the IC50 [3, 6] was 0.18 nM.
For Cc1c(-c2[nH]c3ccc(C4CCC(NCc5cnco5)CC4)nc3c2C(C)C)cn2ncnc2c1C (stereo not drawn) [Example 413], the IC50 [1, 4] was 18 nM, the IC50 [2, 5] was 4740 nM and the IC50 [3, 6] was 17 nM.
With COc1cc(-c2[nH]c3ccc(N4CCN(C(=O)CCN(C)C)CC4)nc3c2C(C)C)cn2ncnc12 [Example 99] the IC50 [1, 7] was 2.9 nM, the IC50 [2, 8] was 4300 nM and the IC50 [3, 9] was 0.51 nM.
For Cc1c(-c2[nH]c3ccc(C4CCC(N5CCC[C@H]5CO)CC4)nc3c2C(C)C)cn2ncnc2c1C (stereo partly drawn) [Example 392], the IC50 [1, 7] was 6.1 nM, the IC50 [2, 8] was 1750 nM and the IC50 [3, 9] was 3.2 nM.
Compound COc1cc(-c2[nH]c3ccc(C4CCC(N5CCC(F)C5)CC4)nc3c2C(C)C)cn2ncnc12 (stereo not drawn) [Example 1067] has an IC50 [1, 10] of 4.5 nM, an IC50 [2, 11] of 5400 nM and an IC50 [3, 12] of 1 nM.
With CC(C)c1c(-c2cn(C)c3ncncc23)[nH]c2ccc(N3CCN(C(=O)CN(C)C)CC3)nc12 [Example 123] the IC50 [1, 7] was 6.3 nM, the IC50 [2, 8] was 8650 nM and the IC50 [3, 9] was 1.9 nM.
In the case of Cc1c(-c2[nH]c3ccc(N4CC5(CN(CCC(N)=O)C5)C4)nc3c2C(C)C)cn2ncnc2c1C [Example 1005], the IC50 [1, 10] is reported as 7.4 nM, the IC50 [2, 11] is reported as 1660 nM and the IC50 [3, 12] is reported as 4.4 nM.
For COc1cc(-c2[nH]c3ccc(C4CCC(NCCS(C)(=O)=O)C4)nc3c2C(C)C)cn2ncnc12 (stereo not drawn) [Example 709], the IC50 [1, 4] was > 3120 nM, the IC50 [2, 5] was > 50000 nM and the IC50 [3, 6] was 2330 nM.
COc1cc(-c2[nH]c3cc(C)c(C4CCC(NCC(F)F)CC4)nc3c2C(C)C)cn2ncnc12 (stereo not drawn) [Example 322] gave an IC50 [1, 7] of 19 nM, an IC50 [2, 8] of 7410 nM and an IC50 [3, 9] of 1.7 nM.
With COc1cc(-c2[nH]c3ccc(C4CCC(NC5CCOCC5)C4)nc3c2C(C)C)cn2ncnc12 (stereo not drawn) [Example 727] the IC50 [1, 4] was 3.2 nM, the IC50 [2, 5] was 3350 nM and the IC50 [3, 6] was 3.6 nM.
Compound CC(C)c1c(-c2cc(CO)c3ncnn3c2)[nH]c2ccc(C3CCC(NCCC(F)(F)F)CC3)nc12 (stereo not drawn) [Example 308] has an IC50 [1, 7] of 11 nM, an IC50 [2, 8] of 3960 nM and an IC50 [3, 9] of 11 nM.
Compound CC(C)c1c(-c2cc(CO)c3ncnn3c2)[nH]c2ccc(N3CCC(NCC4(C)COC4)CC3)nc12 [Example 82] has an IC50 [1, 7] of 0.41 nM, an IC50 [2, 8] of 6380 nM and an IC50 [3, 9] of 0.77 nM.
For COc1cc(-c2[nH]c3ccc(C4CCC(NCc5cnco5)CC4)nc3c2C(C)C)cn2ncnc12 (stereo not drawn) [Example 204], the IC50 [1, 7] was 2.9 nM, the IC50 [2, 8] was 1330 nM and the IC50 [3, 9] was 0.98 nM.
COCCNC1CCC(c2ccc3[nH]c(-c4cn5ncnc5c(C)c4C)c(C(C)C)c3n2)CC1 (stereo not drawn) [Example 429] gave an IC50 [1, 4] of 5.2 nM, an IC50 [2, 5] of 7000 nM and an IC50 [3, 6] of 3.4 nM.
Work on COc1cc(-c2[nH]c3ccc(C4CCN(C5CCN(C)C5=O)CC4)nc3c2C(C)C)cn2ncnc12 (stereo not drawn) [Example 562] yielded an IC50 [1, 4] of 1.1 nM, an IC50 [2, 5] of 6480 nM and an IC50 [3, 6] of 1.9 nM.
With Cc1cc(-c2[nH]c3cc(F)c(C4CCN(C5COC5)CC4)nc3c2C(C)C)cn2ncnc12 [Example 588] the IC50 [1, 4] was 42 nM, the IC50 [2, 5] was 16100 nM and the IC50 [3, 6] was 2.3 nM.
With COCCNCC(=O)N1CCN(c2ccc3[nH]c(-c4cn5ncnc5c(C)c4C)c(C(C)C)c3n2)CC1 [Example 159] the IC50 [1, 7] was 1 nM, the IC50 [2, 8] was 7740 nM and the IC50 [3, 9] was 2.4 nM.
Cc1c(-c2[nH]c3ccc(N4C[C@@H](C)N(C(=O)CCN(C)C)C[C@@H]4C)nc3c2C(C)C)cn2ncnc2c1C [Example 843] showed an IC50 [1, 10] of 1.4 nM, an IC50 [2, 11] of 5480 nM and an IC50 [3, 12] of 0.52 nM.
With Cc1c(-c2[nH]c3ccc(C4CC(N(C)C(=O)CN(C)C)C4)nc3c2C(C)C)cn2ncnc2c1C (stereo not drawn) [Example 615] the IC50 [1, 4] was 7.9 nM, the IC50 [2, 5] was 1960 nM and the IC50 [3, 6] was 2.4 nM.
CCCN(C)CC(=O)N1CCN(c2ccc3[nH]c(-c4cn5ncnc5c(C)c4C)c(C(C)C)c3n2)CC1 [Example 873] gave an IC50 [1, 10] of 1.8 nM, an IC50 [2, 11] of 12800 nM and an IC50 [3, 12] of 3.1 nM.
In the case of Cc1c(-c2[nH]c3ccc(CCC4CNC4)nc3c2C(C)C)cn2ncnc2c1C [Example 692], the IC50 [1, 4] is reported as 58 nM, the IC50 [2, 5] is reported as 1530 nM and the IC50 [3, 6] is reported as 43 nM.
With Cc1c(-c2[nH]c3ccc(N4CCN(CC5(C)COC5)CC4)nc3c2C(C)C)cn2ncnc2c1C [Example 97] the IC50 [1, 7] was 4.1 nM, the IC50 [2, 8] was > 50000 nM and the IC50 [3, 9] was 28 nM.
Compound Cc1c(-c2[nH]c3ccc(C4CC5(C4)CN(CCCS(C)(=O)=O)C5)nc3c2C(C)C)cn2ncnc2c1C [Example 1030] has an IC50 [1, 10] of 1.9 nM, an IC50 [2, 11] of 6280 nM and an IC50 [3, 12] of 3.1 nM.
COc1cc(-c2[nH]c3ccc(C4CN(C(C)C)CCO4)nc3c2C(C)C)cn2ncnc12 (stereo not drawn) [Example 660, 4-isopropyl-2-(3-isopropyl-2-(8-methoxy-[1,2,4]triazolo[1,5-a]pyridin-6-yl)-1H-pyrrolo[3,2-b]pyridin-5-yl)morpholine] was tested, and the IC50 [1, 4] was 15 nM, the IC50 [2, 5] was 14400 nM and the IC50 [3, 6] was 3.3 nM.

From patent US10544143B2, “4-azaindole compounds” (BRISTOL-MYERS SQUIBB COMPANY, priority 2017, dated 2020)
